Assay [1] has as its target T1, human adenosine A1 receptor (Homo sapiens, UniProt P30542).
T1 construct: expressed in transfected cells; host or cells: HEK293 cells infected with BacMam (the same paragraph also labels the preparation CHO-hA1)
T1 sequence (P30542 1-326): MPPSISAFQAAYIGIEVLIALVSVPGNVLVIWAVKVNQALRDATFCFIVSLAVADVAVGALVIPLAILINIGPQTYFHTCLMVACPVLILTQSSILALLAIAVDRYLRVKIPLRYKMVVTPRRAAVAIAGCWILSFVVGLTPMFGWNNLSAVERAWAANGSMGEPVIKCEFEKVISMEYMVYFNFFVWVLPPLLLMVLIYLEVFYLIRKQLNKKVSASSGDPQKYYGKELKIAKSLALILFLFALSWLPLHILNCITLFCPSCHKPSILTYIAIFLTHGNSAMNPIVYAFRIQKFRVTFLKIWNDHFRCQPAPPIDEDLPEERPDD
The experiment in a line: Inhibition binding assay, human adenosine A1 receptor membranes, [3H]DPCPX. The note with it: 1 nM [3H]DPCPX, 25° C., 1 h; IC50 converted to Ki with Cheng-Prusoff; read-out: A1 pKi (converted). How it is done:
(§1) Inhibition binding assays were performed using 0.2 μg of membranes prepared from HEK293 cells infected with BacMam human adenosine A2A receptor or 1.4 μg of membranes prepared from HEK293 cells infected with BacMam human adenosine A1 receptor. Membranes were incubated in 50 mM Tris-HCl (HEK293-hA2A; pH 7.4) or 50 mM Tris-HCl, 100 mM NaCl, 10 mM MgCl2 (CHO-hA1; pH 7.4) in the presence of varying concentrations of test compound and 1 nM [^3H]ZM241385 (HEK293-hA2A) or [^3H]DPCPX (CHO-hA1) at 25° C. for 1 h. The assay was then terminated by rapid filtration onto GF/B grade Unifilter plates using a TomTec cell harvester, followed by 5×0.5 ml washes with ddH2O. Nonspecific binding was defined in the presence of 1 μM CGS15943 (HEK293-hA2A) or 1 μM DPCPX (CHO-hA1). Bound radioactivity was determined by liquid scintillation counting and inhibition curves were analysed using a four-parameter logistic equation. IC50 values were converted to Ki values with the Cheng-Prusoff equation using a KD value derived from saturation binding studies.

Assay [2] deals with T2, human adenosine A2A receptor (Homo sapiens, UniProt P29274).
T2 construct: expressed in transfected cells; host or cells: HEK293 cells infected with BacMam
Description: Inhibition binding assay, human adenosine A2A receptor membranes, [3H]ZM241385. The note with it: 1 nM [3H]ZM241385, HEK293-hA2A membranes, 25° C., 1 h; IC50 converted to Ki with Cheng-Prusoff; read-out: A2A pKi (converted). On the procedure: as §1

A value given as a limit tells only on which side of the number the result lay.

T2 sequence (P29274 whole entry): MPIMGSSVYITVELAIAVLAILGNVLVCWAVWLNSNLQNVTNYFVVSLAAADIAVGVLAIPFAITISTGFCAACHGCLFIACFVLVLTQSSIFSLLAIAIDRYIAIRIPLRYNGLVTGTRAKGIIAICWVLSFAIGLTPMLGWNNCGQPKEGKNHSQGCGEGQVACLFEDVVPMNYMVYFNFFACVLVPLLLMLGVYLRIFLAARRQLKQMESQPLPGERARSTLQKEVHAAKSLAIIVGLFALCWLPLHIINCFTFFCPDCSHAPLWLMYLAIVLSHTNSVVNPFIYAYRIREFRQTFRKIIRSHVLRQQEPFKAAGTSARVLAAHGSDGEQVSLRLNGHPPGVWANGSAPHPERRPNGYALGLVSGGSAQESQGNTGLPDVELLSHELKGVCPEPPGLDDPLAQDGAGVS

For the molecule `CCC(c1ccc(F)cn1)n1nc2c(-c3cc(C)nc(C)c3)c(-c3ccccc3)nc(N)n2c1=O` (single isomer, unassigned) [1-38 iso-1, 5-amino-8-(2,6-dimethyl-4-pyridyl)-2-[1-(5-fluoro-2-pyridyl)propyl]-7-phenyl-[1,2,4]triazolo[4,3-c]pyrimidin-3-one], the Ki is 0.501 µM in assay [1] and 0.0631 µM in assay [2].

Take `CCC(c1ccc(F)cn1)n1nc2c(-c3cc(C)nc(CO)c3)c(-c3ccccc3)nc(N)n2c1=O` (single isomer, unassigned) [1-46 iso-1, 5-amino-2-[1-(5-fluoro-2-pyridyl)propyl]-8-[2-(hydroxymethyl)-6-methyl-4-pyridyl]-7-phenyl-[1,2,4]triazolo[4,3-c]pyrimidin-3-one]: the Ki in assay [1] was greater than 3.16 µM; in assay [2], 0.398 µM.

As for `CCC(c1ccc(F)cn1)n1nc2c(-c3cc(C)nc(CO)c3)c(-c3ccccc3)nc(N)n2c1=O` (single isomer, unassigned) [1-46 iso-2, 5-amino-2-[1-(5-fluoro-2-pyridyl)propyl]-8-[2-(hydroxymethyl)-6-methyl-4-pyridyl]-7-phenyl-[1,2,4]triazolo[4,3-c]pyrimidin-3-one], the Ki in assay [1] is greater than 2.51 µM; in assay [2], 0.1 µM.

Regarding `CCC(c1ccc(F)cn1)n1nc2c(-c3cc(C)nc(C)c3)c(-c3ccccc3)nc(N)n2c1=O` (single isomer, unassigned) [Example 1-38-iso-2, 5-amino-8-(2,6-dimethyl-4-pyridyl)-2-[1-(5-fluoro-2-pyridyl)propyl]-7-phenyl-[1,2,4]triazolo[4,3-c]pyrimidin-3-one], the Ki in assay [1] was greater than 2 µM; in assay [2] it was 0.2 µM.

In the case of `Cc1cc(-c2c(-c3ccccc3)nc(N)n3c(=O)n(CC4CCCOC4)nc23)cc(C)n1` (single isomer, unassigned) [Example 2-81-iso-1, 5-amino-8-(2,6-dimethyl-4-pyridyl)-7-phenyl-2-(tetrahydropyran-3-ylmethyl)-[1,2,4]triazolo[4,3-c]pyrimidin-3-one], the Ki in assay [1] is 0.158 µM; in assay [2] it was 0.002 µM.

Regarding `Cc1cc(-c2c(-c3ccccc3)nc(N)n3c(=O)n(CC4CCCOC4)nc23)cc(C)n1` (single isomer, unassigned) [Example 2-81-iso-2, 5-amino-8-(2,6-dimethyl-4-pyridyl)-7-phenyl-2-(tetrahydropyran-3-ylmethyl)-[1,2,4]triazolo[4,3-c]pyrimidin-3-one], the Ki in assay [1] was 0.126 µM; in assay [2] it was 0.001 µM.

Consider `Cc1cc(-c2c(-c3ccccc3)nc(N)n3c(=O)n(CC4CCCCO4)nc23)cc(C)n1` (single isomer, unassigned) [Example 2-82-iso-1, 5-amino-8-(2,6-dimethyl-4-pyridyl)-7-phenyl-2-(tetrahydropyran-2-ylmethyl)-[1,2,4]triazolo[4,3-c]pyrimidin-3-one], for which the values for the Ki in assay [1] and in assay [2] were 0.126 µM and 0.00158 µM, respectively.

On to `Cc1cc(-c2c(-c3ccccc3)nc(N)n3c(=O)n(CC4CCCS(=O)(=O)C4)nc23)cc(C)n1` (single isomer, unassigned) [Example 2-89-iso-1, 5-amino-8-(2,6-dimethyl-4-pyridyl)-2-[(1,1-dioxothian-3-yl)methyl]-7-phenyl-[1,2,4]triazolo[4,3-c]pyrimidin-3-one], for which the figures for the Ki in assay [1] and in assay [2] were 0.398 µM and 0.01 µM, respectively.

With `Cc1cc(-c2c(-c3ccccc3)nc(N)n3c(=O)n(CC4CCCS(=O)(=O)C4)nc23)cc(C)n1` (single isomer, unassigned) [Example 2-89-iso-2, 5-amino-8-(2,6-dimethyl-4-pyridyl)-2-[(1,1-dioxothian-3-yl)methyl]-7-phenyl-[1,2,4]triazolo[4,3-c]pyrimidin-3-one], the Ki is 0.316 µM in assay [1] and 0.0251 µM in assay [2].

As to `Cc1cc(-c2c(-c3ccccc3)nc(N)n3c(=O)n(CC4CCCCO4)nc23)cc(CO)n1` (single isomer, unassigned) [Example 2-91-iso-1, 5-amino-8-[2-(hydroxymethyl)-6-methyl-4-pyridyl]-7-phenyl-2-(tetrahydropyran-2-ylmethyl)-[1,2,4]triazolo[4,3-c]pyrimidin-3-one], the Ki in assay [1] is 0.631 µM; in assay [2] it was 0.00126 µM.

Take `Cc1cc(-c2c(-c3ccccc3)nc(N)n3c(=O)n(CC4CCCCO4)nc23)cc(CO)n1` (single isomer, unassigned) [Example 2-91-iso-2, 5-amino-8-[2-(hydroxymethyl)-6-methyl-4-pyridyl]-7-phenyl-2-(tetrahydropyran-2-ylmethyl)-[1,2,4]triazolo[4,3-c]pyrimidin-3-one]: the Ki in assay [1] is 0.251 µM; in assay [2], 0.00158 µM.

For the molecule `Cc1cc(-c2c(-c3ccccc3)nc(N)n3c(=O)n(CC4CCCOC4)nc23)cc(CO)n1` (single isomer, unassigned) [Example 2-92-iso-1, 5-amino-8-[2-(hydroxymethyl)-6-methyl-4-pyridyl]-7-phenyl-2-(tetrahydropyran-3-ylmethyl)-[1,2,4]triazolo[4,3-c]pyrimidin-3-one], the Ki in assay [1] was 0.251 µM; in assay [2] it was 0.00251 µM.

Regarding `Cc1cc(-c2c(-c3ccccc3)nc(N)n3c(=O)n(CC4CCCOC4)nc23)cc(CO)n1` (single isomer, unassigned) [Example 2-92-iso-2, 5-amino-8-[2-(hydroxymethyl)-6-methyl-4-pyridyl]-7-phenyl-2-(tetrahydropyran-3-ylmethyl)-[1,2,4]triazolo[4,3-c]pyrimidin-3-one], the values for the Ki in assay [1] and in assay [2] were 0.316 µM and 0.00126 µM, respectively.

Turning to `COc1ccc(Cn2nc3c(-c4cc(C)nc(C)c4)c(-c4ccccc4)nc(N)n3c2=O)cc1` [Example 1-3, 5-amino-8-(2,6-dimethyl-4-pyridyl)-2-[(4-methoxyphenyl)methyl]-7-phenyl-[1,2,4]triazolo[4,3-c]pyrimidin-3-one], the Ki in assay [1] was 0.0251 µM; in assay [2], 0.00631 µM.

In the case of `Cc1cc(-c2c(-c3ccccc3)nc(N)n3c(=O)n(Cc4ccc(O)cc4)nc23)cc(C)n1` [Example 1-4, 5-amino-8-(2,6-dimethyl-4-pyridyl)-2-[(4-hydroxyphenyl)methyl]-7-phenyl-[1,2,4]triazolo[4,3-c]pyrimidin-3-one], the figures for the Ki in assay [1] and in assay [2] were 0.501 µM and 0.00126 µM, respectively.

As for `Cc1cc(-c2c(-c3ccccc3)nc(N)n3c(=O)n(Cc4cccnn4)nc23)cc(C)n1` [Example 1-5, 5-amino-8-(2,6-dimethyl-4-pyridyl)-7-phenyl-2-(pyridazin-3-ylmethyl)-[1,2,4]triazolo[4,3-c]pyrimidin-3-one], the Ki in assay [1] is 0.251 µM; in assay [2], 0.00251 µM.

As to `COc1cccc(Cn2nc3c(-c4cc(C)nc(C)c4)c(-c4ccccc4)nc(N)n3c2=O)n1` [Example 1-6, 5-amino-8-(2,6-dimethyl-4-pyridyl)-2-[(6-methoxy-2-pyridyl)methyl]-7-phenyl-[1,2,4]triazolo[4,3-c]pyrimidin-3-one], the Ki in assay [1] was 0.2 µM; in assay [2] it was 0.000794 µM.

`Cc1cc(-c2c(-c3ccccc3)nc(N)n3c(=O)n(Cc4ccc(F)c(=O)[nH]4)nc23)cc(C)n1` [Example 1-8, 5-amino-8-(2,6-dimethyl-4-pyridyl)-2-[(5-fluoro-6-oxo-1H-pyridin-2-yl)methyl]-7-phenyl-[1,2,4]triazolo[4,3-c]pyrimidin-3-one]: the values for the Ki in assay [1] and in assay [2] were 0.316 µM and 0.0251 µM, respectively.
